Experimental data: ChEMBL document CHEMBL1134992, “Six-membered cyclic ureas as HIV-1 protease inhibitors: a QSAR study based on CODESSA PRO approach. Quantitative structure-activity relationships” (Bioorg Med Chem Lett, 2002)

Target: Human immunodeficiency virus type 1 protease (Human immunodeficiency virus 1, UniProt Q72874)
Test: Inhibitory activity of compound against HIV-1 aspartyl protease.
Settings: read-out: Log 1/Ki (converted)

For CNc1cc(CN2C(=O)N(Cc3ccc(F)c(NC)c3)[C@H](Cc3ccccc3)[C@H](O)[C@H]2CCc2ccccc2)ccc1F, the Ki was 4.91 nM.
